Results taken from ChEMBL document CHEMBL1201862, “PubChem BioAssay data set” (2004).
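Interpolation was linear, between the two tested concentrations surrounding the appropriate level; five concentrations were tested over 48 hours in 96-well plates. GI50: concentration for 50% inhibition of growth.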 Activity calls are given as the source filed them. Rule as the data show it: active = GI50 up to about 1.1 µM and inactive = higher.

Tests used:
Test in all cases: DTP human tumour cell line panel, 48 h
[1] = tested on: SK-MEL-2
[2] = tested on: DMS-273
[3] = tested on: XF498
[4] = tested on: HCT-15
[5] = tested on: HL-60
[6] = tested on: A549
[7] = tested on: SN12C
[8] = tested on: NCI-H23
[9] = tested on: SW-620
[10] = tested on: KM12
[11] = tested on: SK-OV-3
[12] = tested on: K562
[13] = tested on: HOP-92
[14] = tested on: MOLT-4
[15] = tested on: LXFL 529
[16] = tested on: SK-MEL-28
[17] = tested on: HOP-18
[18] = tested on: IGROV-1
[19] = tested on: M19-MEL
[20] = tested on: Malme-3M
[21] = tested on: HT-29
[22] = tested on: NCI-H226
[23] = tested on: OVCAR-3
[24] = tested on: NCI-H522
[25] = tested on: M14
[26] = tested on: LOX IMVI
[27] = tested on: SF-268
[28] = tested on: RXF 393
[29] = tested on: SNB-19
[30] = tested on: CAKI-1
[31] = tested on: UACC-257
[32] = tested on: UO-31
[33] = tested on: HCT-116
[34] = tested on: ACHN
[35] = tested on: SF-539
[36] = tested on: HCC 2998
[37] = tested on: SK-MEL-5
[38] = tested on: OVCAR-4
[39] = tested on: A498
[40] = tested on: SF-295
[41] = tested on: TK-10
[42] = tested on: OVCAR-5
[43] = tested on: NCI-H460
[44] = tested on: 786-0
[45] = tested on: EKVX
[46] = tested on: OVCAR-8
[47] = tested on: SR
[48] = tested on: UACC-62
[49] = tested on: SNB-78
[50] = tested on: HOP-62
[51] = tested on: CCRF-CEM
[52] = tested on: SNB-75
[53] = tested on: KM-20L2
[54] = tested on: U-251
[55] = tested on: RPMI-8226
[56] = tested on: DLD-1
[57] = tested on: COLO 205

`O=C(O/N=C1/CCC/C1=C\c1ccccc1)c1ccc(Cl)cc1` was tested, and the GI50 [1] was > 100 µM (inactive), the GI50 [2] was > 76.9 µM (inactive) and the GI50 [3] was 61.5 µM (inactive). The GI50 [4] was over 100 µM, the GI50 [5] was > 56.1 µM (inactive) and the GI50 [6] was 64 µM (inactive). The GI50 [7] was > 58.6 µM (inactive), the GI50 [8] was 50.8 µM (inactive) and the GI50 [9] was > 100 µM (inactive). For the same compound, the GI50 [10] was > 100 µM (inactive), the GI50 [11] was > 70.3 µM (inactive) and the GI50 [12] was > 94.2 µM (inactive). For the same compound, the GI50 [13] was 64.3 µM (inactive), the GI50 [14] was > 100 µM (inactive) and the GI50 [15] was 47.4 µM (inactive). The GI50 [16] was > 100 µM (inactive), the GI50 [17] was > 100 µM (inactive) and the GI50 [18] was > 46.5 µM (inactive). For the same compound, the GI50 [19] was > 100 µM (inactive), the GI50 [20] was > 100 µM (inactive) and the GI50 [21] was > 100 µM (inactive). For the same compound, the GI50 [22] was > 95.7 µM (inactive), the GI50 [23] was 36 µM (inactive) and the GI50 [24] was > 58.2 µM (inactive). The GI50 [25] was > 100 µM (inactive), the GI50 [26] was > 100 µM (inactive) and the GI50 [27] was > 77.4 µM (inactive). The GI50 [28] was 18 µM (inactive), the GI50 [29] was > 100 µM (inactive) and the GI50 [30] was > 52.1 µM (inactive). For the same compound, the GI50 [31] was > 100 µM (inactive), the GI50 [32] was 58.9 µM (inactive) and the GI50 [33] was > 100 µM (inactive). For the same compound, the GI50 [34] was 60.5 µM (inactive), the GI50 [35] was 25.2 µM (inactive) and the GI50 [36] was > 100 µM (inactive). The GI50 [37] was > 100 µM (inactive), the GI50 [38] was 25.8 µM (inactive) and the GI50 [39] was > 60.4 µM (inactive). For the same compound, the GI50 [40] was 42 µM (inactive), the GI50 [41] was 38.9 µM (inactive) and the GI50 [42] was > 100 µM (inactive). The GI50 [43] was > 31.6 µM (inactive), the GI50 [44] was 51.8 µM (inactive) and the GI50 [45] was > 67.3 µM (inactive). For the same compound, the GI50 [46] was > 71.6 µM (inactive), the GI50 [47] was > 82.4 µM (inactive) and the GI50 [48] was > 80.4 µM (inactive). For the same compound, the GI50 [49] was 32.8 µM (inactive), the GI50 [50] was > 54.3 µM (inactive) and the GI50 [51] was > 100 µM (inactive). The GI50 [52] was 21.7 µM (inactive), the GI50 [53] was > 100 µM (inactive) and the GI50 [54] was 46.6 µM (inactive). The GI50 [55] was > 65.9 µM (inactive), the GI50 [56] was 23.9 µM (inactive) and the GI50 [57] was > 100 µM (inactive).
For `Nc1nc2[nH]cnc2c(=O)[nH]1`, the GI50 [1] was > 100 µM (inactive), the GI50 [2] was > 100 µM (inactive) and the GI50 [3] was > 100 µM (inactive). For the same compound, the GI50 [4] was over 100 µM, the GI50 [5] was > 100 µM (inactive) and the GI50 [6] was > 100 µM (inactive). The GI50 [7] was > 100 µM (inactive), the GI50 [8] was > 100 µM (inactive) and the GI50 [9] was > 100 µM (inactive). The GI50 [10] was > 100 µM (inactive), the GI50 [11] was > 100 µM (inactive) and the GI50 [12] was > 100 µM (inactive). The GI50 [13] was > 100 µM (inactive), the GI50 [15] was > 100 µM (inactive) and the GI50 [16] was > 100 µM (inactive). For the same compound, the GI50 [17] was > 100 µM (inactive), the GI50 [18] was > 100 µM (inactive) and the GI50 [19] was > 100 µM (inactive). The GI50 [20] was > 100 µM (inactive), the GI50 [21] was > 100 µM (inactive) and the GI50 [22] was > 100 µM (inactive). The GI50 [23] was > 100 µM (inactive), the GI50 [24] was > 100 µM (inactive) and the GI50 [25] was > 100 µM (inactive). The GI50 [26] was > 100 µM (inactive), the GI50 [27] was > 100 µM (inactive) and the GI50 [28] was > 100 µM (inactive). For the same compound, the GI50 [30] was > 100 µM (inactive), the GI50 [31] was > 100 µM (inactive) and the GI50 [32] was > 100 µM (inactive). The GI50 [33] was > 100 µM (inactive), the GI50 [34] was > 100 µM (inactive) and the GI50 [35] was > 100 µM (inactive). For the same compound, the GI50 [37] was > 100 µM (inactive), the GI50 [38] was > 100 µM (inactive) and the GI50 [39] was > 100 µM (inactive). For the same compound, the GI50 [40] was > 100 µM (inactive), the GI50 [41] was > 100 µM (inactive) and the GI50 [42] was > 100 µM (inactive). For the same compound, the GI50 [43] was > 100 µM (inactive), the GI50 [44] was > 100 µM (inactive) and the GI50 [45] was > 100 µM (inactive). For the same compound, the GI50 [46] was > 100 µM (inactive), the GI50 [47] was > 100 µM (inactive) and the GI50 [48] was > 100 µM (inactive). For the same compound, the GI50 [49] was > 100 µM (inactive), the GI50 [50] was > 100 µM (inactive) and the GI50 [51] was > 100 µM (inactive). For the same compound, the GI50 [52] was 90.6 µM (inactive), the GI50 [53] was > 100 µM (inactive) and the GI50 [54] was > 100 µM (inactive). The GI50 [55] was > 100 µM (inactive), the GI50 [56] was > 100 µM (inactive) and the GI50 [57] was > 100 µM (inactive).
